Assay results as given in the OPERA property sets (Mansouri et al. 2018).

conditions: not given

Compared with `CCOC(=O)C(C(=O)OCC)C(=O)OCC`, `C=CC(=O)OCCOCC` is lower in boiling point: 253 °C for the first, 174 °C for the second.

Compared with `Cc1ccc(-c2ccc(C)cc2C)c(C)c1`, `CCC(C)c1ccc(N)cc1` (stereo not given) is lower in boiling point: 287 °C for the first, 238 °C for the second.

Going from `OCCCl` to `C=C(C)CCl`, the boiling point falls from 129 °C to 71.5 °C.

Going from `Fc1cccc(N=C=S)c1` to `N#Cc1ccccc1N`, the boiling point rises from 227 °C to 263 °C.

Compared with `Cl[Si](Cl)(Cl)CCc1ccccc1`, `c1ccc(C2CCNCC2)cc1` is higher in boiling point: 242 °C for the first, 257 °C for the second.

First: CCCC(C)C(C)C (stereo not given)
Second: CCC(C)CO (stereo not given)
The boiling point of the first is lower: 116 °C for the first, 128 °C for the second.

First: CC(C)=C1CCCC(C)C1 (stereo not given)
Second: CCC(C)C(C)=O (stereo not given)
The boiling point of the first is higher: 174 °C for the first, 118 °C for the second.

Compared with `C=CC=CCC`, `CCOCCC#N` is higher in boiling point: 73.5 °C for the first, 154 °C for the second.

Compared with `FCCBr`, `CCOCCOCC` is higher in boiling point: 71.5 °C for the first, 119 °C for the second.

Going from `BrC(Br)(Br)Br` to `C1=CCCC=CCC1`, the boiling point falls from 190 °C to 151 °C.

Compared with `CC(Cl)CC(C)Cl` (stereo not given), `C[Si](C)(Cl)Cl` is lower in boiling point: 145 °C for the first, 70.3 °C for the second.

First: CCCCCCCCC(=O)OC
Second: CCCCCCC(=O)Cl
The boiling point of the first is higher: 214 °C for the first, 145 °C for the second.

Compared with `CCOc1ccc(N)cc1`, `Oc1c(Cl)c(Cl)c(Cl)c(Cl)c1Cl` is higher in boiling point: 254 °C for the first, 310 °C for the second.

Compared with `CCOC(=O)C(C(=O)OCC)C(=O)OCC`, `C=CC(=O)OCCOCC` is lower in melting point: 29 °C for the first, -47 °C for the second.

Going from `O[C@@H]1CCc2ccccc2C1` to `c1ccc(C2CCNCC2)cc1`, the melting point rises from 15.5 °C to 60.5 °C.

Compared with `Cc1ccc(-c2ccc(C)cc2C)c(C)c1`, `O=C1C=Cc2cccc3cccc1c23` is higher in melting point: 41 °C for the first, 154 °C for the second.

First: CC(=O)Nc1cccc(O)c1
Second: CC1=C(C(=O)Nc2ccccc2)SCCO1
The melting point of the first is higher: 147 °C for the first, 91.5 °C for the second.

Going from `O=C1CN(N=Cc2ccc([N+](=O)[O-])o2)C(=O)N1` to `O=[N+]([O-])c1ccco1`, the melting point falls from 263 °C to 30 °C.

Compared with `OCCCl`, `CCCCCCC(=O)Cl` is lower in melting point: -67.5 °C for the first, -83.8 °C for the second.

Going from `Cc1csc(N)n1` to `Cc1cc(C)nc(N)n1`, the melting point rises from 45.5 °C to 152 °C.

Compared with `CC(=O)OC[C@H]([C@H](OC(C)=O)c1ccccc1)[N+](=O)[O-]`, `NC(=O)NCc1ccccc1` is higher in melting point: 70 °C for the first, 148 °C for the second.

Compared with `O=C(O)C(Cc1ccccc1)Cc1ccccc1`, `O=C(c1ccccc1)C(Cl)c1ccccc1` (stereo not given) is lower in melting point: 90 °C for the first, 68.5 °C for the second.

First: CC(=O)c1ccc(O[C@@H]2O[C@H](CO)[C@@H](O)[C@H](O)[C@H]2O)cc1
Second: CCOc1ccc(N)cc1
The melting point of the first is higher: 196 °C for the first, 2.4 °C for the second.

First: NNCc1ccccc1
Second: N#Cc1ccccc1N
The melting point of the first is lower: 26 °C for the first, 51 °C for the second.

Going from `COS(=O)(=O)[O-].C[n+]1c2ccccc2nc2ccccc21` to `O=C(c1ccccc1)c1cccc(Br)c1`, the melting point falls from 157 °C to 81 °C.

Going from `CC1(C)CNC(=NN=C(/C=C/c2ccc(C(F)(F)F)cc2)/C=C/c2ccc(C(F)(F)F)cc2)NC1` to `C(=N\C(/N=C/c1ccco1)c1ccco1)/c1ccco1`, the melting point falls from 188 °C to 117 °C.

First: BrC(Br)(Br)Br
Second: OCc1ccncc1
The melting point of the first is higher: 90.1 °C for the first, 53 °C for the second.

Compared with `CCCCCCCCCCCCCCCC(=O)NCCO`, `CCCCCCCCCC(Br)C(=O)O` (stereo not given) is lower in melting point: 98.5 °C for the first, 10 °C for the second.

Going from `O=C(O)CC(O)C(=O)O` (stereo not given) to `O=C(O)C(I)I`, the melting point falls from 131 °C to 110 °C.

Going from `Cc1c(Cl)c(Cl)cc(Cl)c1Cl` to `Oc1c(Cl)c(Cl)c(Cl)c(Cl)c1Cl`, the melting point rises from 93.5 °C to 174 °C.

First: CCCCCCCCCOC(=O)c1ccc(N)cc1
Second: CCOCCOCC
The melting point of the first is higher: 69 °C for the first, -74 °C for the second.

Compared with `CC1(C)S[C@@H]2[C@H](N3C(=O)C(c4ccccc4)NC3(C)C)C(=O)N2[C@H]1C(=O)O` (stereo not given in full), `O[C@H]1[C@H]2c3cc4c(cc3CN3CCC(=C[C@@H]1O)[C@H]23)OCO4` is higher in melting point: 190 °C for the first, 280 °C for the second.

Going from `CC1=C(O)C(=O)C(C)O1` (stereo not given) to `CNC(=S)NCO`, the melting point rises from 80.5 °C to 89 °C.

Compared with `c1ccc(-c2oc(-c3ccccc3)c(-c3ccccc3)c2-c2ccccc2)cc1`, `C1=CCCC=CCC1` is lower in melting point: 175 °C for the first, -56.4 °C for the second.

`OCCCl` showed a log10 Koa of 4.3.

Compared with `OCCCl`, `C=C(C)CCl` is higher in log10 vapour pressure (mmHg): 0.856 for the first, 2.01 for the second.

First: CCCC(C)C(C)C (stereo not given)
Second: CCC(C)CO (stereo not given)
The log10 vapour pressure (mmHg) of the first is higher: 1.37 for the first, 0.494 for the second.

First: C=CC=CCC
Second: CCC(C)C(C)=O (stereo not given)
The log10 vapour pressure (mmHg) of the first is higher: 2.11 for the first, 1.06 for the second.

Compared with `CC1(C)CNC(=NN=C(/C=C/c2ccc(C(F)(F)F)cc2)/C=C/c2ccc(C(F)(F)F)cc2)NC1`, `O=C1C=Cc2cccc3cccc1c23` is higher in log10 vapour pressure (mmHg): -7.69 for the first, -5.17 for the second.

First: BrC(Br)(Br)Br
Second: C1=CCCC=CCC1
The log10 vapour pressure (mmHg) of the first is lower: -0.569 for the first, 0.695 for the second.

Compared with `O=C(O)CC(O)C(=O)O` (stereo not given), `CCCCCCC(=O)Cl` is higher in log10 vapour pressure (mmHg): -7.48 for the first, -0.35 for the second.

Going from `CCOc1ccc(N)cc1` to `CC1=C(C(=O)Nc2ccccc2)SCCO1`, the log10 vapour pressure (mmHg) falls from -1.98 to -6.82.

Compared with `C[Si](C)(Cl)Cl`, `CCOCCOCC` is lower in log10 vapour pressure (mmHg): 2.16 for the first, 1.53 for the second.

`Oc1c(Cl)c(Cl)c(Cl)c(Cl)c1Cl` gave a log10 vapour pressure (mmHg) of -3.96.

For `OCCCl`, the ready biodegradability was “readily biodegradable”.
With `C=C(C)CCl` the ready biodegradability was “readily biodegradable”.
With `CCCCCCCCCCCCCCCCCC(=O)N(CCO)CCO` the ready biodegradability was “readily biodegradable”.
With `O=C(O)CC(O)C(=O)O` (stereo not given) the ready biodegradability was “readily biodegradable”.
For `C=CC(=O)NCOCCCC`, the ready biodegradability was “readily biodegradable”.
In the case of `CCOc1ccc(N)cc1`, the ready biodegradability is reported as “not readily biodegradable”.
In the case of `CC1=C(C(=O)Nc2ccccc2)SCCO1`, the ready biodegradability is reported as “readily biodegradable”.
In the case of `Oc1c(Cl)c(Cl)c(Cl)c(Cl)c1Cl`, the ready biodegradability is reported as “not readily biodegradable”.

In the case of `CCCC(C)C(C)C` (stereo not given), the log10 biodegradation half-life (days) is reported as 1.42.

First: CC1(C)CNC(=NN=C(/C=C/c2ccc(C(F)(F)F)cc2)/C=C/c2ccc(C(F)(F)F)cc2)NC1
Second: CC1=C(C(=O)Nc2ccccc2)SCCO1
The log10 Koc (L/kg) of the first is higher: 5.86 for the first, 2.41 for the second.

For `Oc1c(Cl)c(Cl)c(Cl)c(Cl)c1Cl`, the log10 Koc (L/kg) was 4.3.

Going from `Clc1cc(Cl)cc(-c2cc(Cl)c(Cl)c(Cl)c2Cl)c1` to `Oc1c(Cl)c(Cl)c(Cl)c(Cl)c1Cl`, the log10 Henry constant (atm·m³/mol) falls from -4.7 to -7.61.

Work on `CCC(C)CO` (stereo not given) yielded a log10 Henry constant (atm·m³/mol) of -4.85.

same assay, conditions: fish

Going from `CCc1ccc2c(c1)C(=O)c1ccccc1C2=O` to `CC(C)Oc1cccc(NC(=O)c2ccccc2C(F)(F)F)c1`, the log10 BCF rises from 0.98 to 1.29.

Going from `Brc1ccc(Oc2c(Br)cc(Br)cc2Br)c(Br)c1` to `CCOc1ccc(N)cc1`, the log10 BCF falls from 6.36 to 1.

With `Oc1c(Cl)c(Cl)c(Cl)c(Cl)c1Cl` the log10 BCF was 2.66.

Compared with `CC(C)Oc1cccc(NC(=O)c2ccccc2C(F)(F)F)c1`, `Clc1ccc2c(c1)oc1c(Cl)cccc12` is higher in log10 biotransformation half-life (days): -0.61 for the first, 0.58 for the second.

Going from `CCOc1ccc(N)cc1` to `Oc1c(Cl)c(Cl)c(Cl)c(Cl)c1Cl`, the log10 biotransformation half-life (days) rises from -1.24 to -0.2.
